Measured values from article PMC12040169 (PLOS Biology, 2025).

Test: in vitro
Conditions: human, hela cells, % viability

Structure (SMILES)	viability at 28.5 h, 10 µM
Cc1c(C(=O)NCc2ccncc2)nnn1-c1cccc(C(F)(F)F)c1 [CBK107396]	88.7%
CN(C)CC(C)(C)CNC(=O)c1cc(C(=O)c2ccc(Cl)cc2Cl)c[nH]1 [CBK107416]	94.8%
O=C(c1c[nH]c(C(=O)N2CCN(c3ncccn3)CC2)c1)c1ccc(Cl)cc1Cl [CBK107418]	89.4%
CN1CCN(NC(=O)c2cc(C(=O)c3ccc(Cl)cc3Cl)c[nH]2)CC1 [CBK107420]	91.4%
CN1CCN(C(=O)c2cnc3cc(C(F)(F)F)ccc3c2O)CC1 [CBK107423]	105%
CN(C)CC(C)(C)CNC(=O)c1cnc2cc(C(F)(F)F)ccc2c1O [CBK107427]	97.9%
CC(C)(CN1CCOCC1)NC(=O)c1cnc2cc(C(F)(F)F)ccc2c1O [CBK107429]	102%
COc1ccc(Nc2cc(Cl)ccc2C(=O)Nc2ccncc2)cn1 [CBK107434]	96.3%
O=C(Nc1ccncc1)c1cnn(-c2ccc(Cl)cc2)c1C(F)(F)F [CBK107441]	95.5%
O=C(Nc1ccc(OC(F)F)cc1)Nc1c(Br)cnc2cccnc12 [CBK107632]	87.8%
O=C(Nc1ccc2oc(-c3ccccc3)nc2c1)C1CCCO1 (centres unmarked) [CBK107724]	84.1%
CCOc1cc(OCC)nc(Oc2ccc(C(=O)OC)cc2)n1 [CBK107733]	87.2%
Fc1ccc(OCCCN2CCC3(CC2)OCCc2c3[nH]c3ccccc23)cc1 [CBK107736]	77%
CNC(=O)CSc1nccnc1N1CCCC1 [CBK107748]	93.6%
Cc1ccc(Nc2cncc(-c3ccc(O)cc3)n2)cc1Cl [CBK107802]	99.9%
Oc1ccc(-c2cncc(Nc3ccc(Br)c(Cl)c3)n2)cc1 [CBK107806]	89.4%
CCC(=O)c1c(CC)n[nH]c1-c1c(Cl)cccc1Cl [CBK107819]	96.1%
COc1ccccc1NC(=O)c1[nH]nc(O)c1Cc1c(Cl)cccc1Cl [CBK107846]	90.2%
CC(C)Nc1nc2cc(Cl)c(Cl)cc2nc1SCCC(=O)O [CBK107860]	96.1%
O=C(O)CCSc1nccc(C(F)(F)F)n1 [CBK107864]	87.5%
O=C(O)CCSc1nc2ccccc2nc1C(F)(F)F [CBK107866]	93.7%
CC1(OCCCO)SC(NC2CCCCCC2)=NC1=O (centres unmarked) [CBK107927]	91.5%
Oc1n[nH]c(-c2ccccc2Cl)c1Cc1c(Cl)cccc1Cl [CBK107935]	84.1%

Structure (SMILES)	viability at 28.5 h, 10 µM
Cc1ccc(C)c2[nH]c(=O)c(CN(CCN3CCOCC3)Cc3nnnn3C3CCCCC3)cc12 [CBK108116]	85.3%
COc1cc2cc(CN(Cc3cccnc3)C(=O)Nc3ccc(F)cc3)c(=O)[nH]c2cc1OC [CBK108193]	93.3%
CCc1cc2cc3c(cc2nc1SCC(=O)Nc1nc(C)c(C)s1)OCO3 [CBK108548]	94.8%
Cc1cccc2cc(CN(Cc3cccnc3)C(=O)Nc3ccccc3Cl)c(=O)[nH]c12 [CBK108869]	97.9%
Cc1ccc2cc(CN(Cc3ccc4c(c3)OCO4)Cc3nnnn3Cc3ccco3)c(=O)[nH]c2c1 [CBK108949]	93.9%
Cc1cc2cc(CN(CC3CCCO3)C(=O)C3CC3)c(Cl)nc2cc1C (centres unmarked) [CBK109881]	101%
O=C1c2ccccc2CN1c1ccc(Cl)cc1Cl [CBK109908]	95%
COc1ccc2c(c1OC)C(=O)N1c3ccccc3COC21 (centres unmarked) [CBK109960]	103%
O=C(O)c1cc(S(=O)(=O)Nc2ccccc2)ccc1O [CBK109969]	83.2%
CC(=O)OC(c1ccccc1)c1nc2ccccc2[nH]1 (centres unmarked) [CBK110141]	97.1%
O=C(O)CSc1cccc([N+](=O)[O-])c1 [CBK110160]	101%
O=C(Nc1ccccc1Cl)C1CCCN1S(=O)(=O)c1ccc(F)cc1 (centres unmarked) [CBK110161]	89.1%
Cc1ccc(NC(=O)C2CCCN2S(=O)(=O)c2ccc(F)cc2)cc1F (centres unmarked) [CBK110164]	91.6%
CNS(=O)(=O)c1cc(C(=O)O)c(OC)cc1OC [CBK110325]	84.6%
COC(=O)c1cc(C(=O)CSc2nc(N)cc(O)n2)ccc1O [CBK110407]	92.2%
COc1ccc(OC)c(C(=O)c2coc3ccc(OCC(=O)O)cc23)c1 [CBK111288]	91.8%
O=C1/C(=C/c2c(NCCCn3ccnc3)nc3ccccn3c2=O)SC(=S)N1CC1CCCO1 (centres unmarked) [CBK111310]	99.3%
CC1CCN(Cc2c(O)ccc3occ(C(=O)c4ccccc4)c23)CC1 [CBK111319]	89.8%
O=C(O)CSc1ccccc1[N+](=O)[O-] [CBK111324]	86.8%
CCS(=O)(=O)Nc1cc(C(F)(F)F)ccc1Cl [CBK111339]	111%
CCS(=O)(=O)Nc1cc([N+](=O)[O-])ccc1OC [CBK111343]	97%
CCS(=O)(=O)Nc1cc(Cl)ccc1C [CBK111350]	79.1%
Cc1ccc(NC(C(N)=O)c2c(C)[nH]c(=O)[nH]c2=O)cc1 (centres unmarked) [CBK111355]	98.4%

Structure (SMILES)	viability at 28.5 h, 10 µM
Cc1ccc([N+](=O)[O-])cc1NS(=O)(=O)Cc1ccc(Cl)cc1 [CBK111359]	71.8%
CN1CCN(Cc2c(O)ccc3occ(C(=O)c4ccccc4)c23)CC1 [CBK111438]	98.2%
COc1ccc(SCC(=O)O)cc1 [CBK111455]	93.7%
CCc1nc2ccccc2n1CC(=O)O [CBK111477]	101%
O=C(O)CCn1c(C2CCCCC2)nc2ccccc21 [CBK111480]	86.2%
CC(OC(=O)C1CCCCC1)c1nc2ccccc2[nH]1 (centres unmarked) [CBK111483]	107%
Cc1[nH]c(=O)[nH]c(=O)c1Cc1cccc2ccccc12 [CBK111494]	92.8%
COCCn1nnnc1C(c1cc2c(C)ccc(C)c2[nH]c1=O)N1CCN(C(=O)c2ccco2)CC1 (centres unmarked) [CBK111563]	98.6%
O=C(NCc1cccnc1)c1ccc(-c2cccc(Cl)c2Cl)o1 [CBK112211]	102%
CCCc1[nH]n(CCc2ccccc2)c(=O)c1Cc1c(Cl)cccc1Cl [CBK112499]	99.8%
Nc1nc2ccccc2cc1-c1cccs1 [CBK112549]	100%
O=C(Nc1ccc2c(c1)C1C=CCC1C(C(=O)O)N2)c1ccc(Cl)cc1Cl (centres unmarked) [CBK112584]	105%
CCOC(=O)C1N(C)C(=O)C(Cc2c(Cl)cccc2Cl)=C(C)N1C (centres unmarked) [CBK112643]	94.4%
COCCN1CCOC2(CCN(C(=O)c3ccc(C)cc3)CC2)C1c1ccccc1OC (centres unmarked) [CBK112657C]	100%
CSc1ccc(-n2ncc(-c3cccc(C(F)(F)F)c3)n2)cc1 [CBK112666]	93.6%
N#Cc1ccc(-n2ncc(-c3cccc(C(F)(F)F)c3)n2)cc1 [CBK112675]	90.9%
Oc1ccc(-n2ncc(-c3cccc(C(F)(F)F)c3)n2)cc1 [CBK112677]	99.9%
COc1ccc(-n2ncc(-c3cccc(C(F)(F)F)c3)n2)cn1 [CBK112678]	95.8%
OCc1ccc(-n2ncc(-c3ccc(C(F)(F)F)cc3)n2)cc1 [CBK112696]	94.6%
CS(=O)(=O)c1ccc(-n2ncc(-c3ccc(C(F)(F)F)cc3)n2)cc1 [CBK112698]	90%
O=C(O)c1cccc(-n2ncc(-c3ccccc3C(F)(F)F)n2)c1 [CBK112721]	98.1%
CSc1ccc(-n2ncc(-c3ccc(F)cc3F)n2)cc1 [CBK112728]	91.3%
OCc1ccc(-n2ncc(-c3ccc(F)cc3F)n2)cc1 [CBK112731]	97.3%

Structure (SMILES)	viability at 28.5 h, 10 µM
Oc1ccc(-n2ncc(-c3ccc(F)cc3F)n2)cc1 [CBK112736]	98%
Fc1ccc(-c2cnn(-c3ccc(OC(F)(F)F)cc3)n2)c(F)c1 [CBK112740]	99.1%
COc1ccc(-c2cnn(-c3ccc(OC)cc3)n2)cc1 [CBK112745]	106%
COc1ccc(-c2cnn(-c3ccccc3CN(C)C)n2)cc1 [CBK112762]	106%
CSc1ccc(-n2ncc(-c3ccc(Cl)cc3)n2)cc1 [CBK112782]	84%
COc1ccc(-n2ncc(-c3cccnc3)n2)cn1 [CBK112827]	96.7%
Clc1ccc(-n2ncc(-c3ccsc3)n2)cc1Cl [CBK112843]	96.3%
CN(C)c1ccc(-n2ncc(-c3ccsc3)n2)cc1 [CBK112845]	86.8%
NC(=O)c1ccc(-n2ncc(-c3ccsc3)n2)cc1 [CBK112858]	98.4%
O=C(O)c1cccc(-n2ncc(-c3ccsc3)n2)c1 [CBK112859]	100%
c1cc(-c2cnn(-c3ccc4c(c3)CCO4)n2)cs1 [CBK112861]	93.4%
COc1ccc(-n2ncc(CN(C)C)n2)cc1OC [CBK112862]	101%
CN(C)Cc1cnn(-c2ccc(Oc3ccccc3)cc2)n1 [CBK112865]	100%
CCOC(=O)c1cccc(-n2ncc(CN(C)C)n2)c1 [CBK112866]	91.4%
CN(C)Cc1ccccc1-n1ncc(CN2CCS(=O)(=O)CC2)n1 [CBK112877]	107%
CCOC(=O)c1cccc(-n2ncc(-c3ccc(F)cc3)n2)c1 [CBK112908]	94.1%
OCc1ccc(-n2ncc(-c3ccc(Br)cc3F)n2)cc1 [CBK112920]	96.6%
CN(C)Cc1ccccc1-n1ncc(-c2ccc(Br)cc2F)n1 [CBK112924]	90.9%
Fc1cc(Br)ccc1-c1cnn(-c2ccccc2)n1 [CBK112925]	103%
COc1ccc(-n2cc(-c3cccc(C(F)(F)F)c3)nn2)cc1OC [CBK112933]	94.9%
FC(F)(F)c1cccc(-c2cn(-c3ccsc3)nn2)c1 [CBK112937]	88.5%

Same assay, conditions: human, hela cells, % viability, bulk resorufin, single well

Structure (SMILES)	viability at 28.5 h, 10 µM
COc1ccc(CCNC(=O)c2cccc(-c3ccc4c(c3)COC3(CCNCC3)O4)c2)cc1OC [CBK110024]	116%
COc1cc(CNC(=O)c2cccc(-c3ccc4c(c3)COC3(CCNCC3)O4)c2)cc(OC)c1OC [CBK110087]	87.8%
